Literature values in patent US11576379B2, “Antimicrobial composition comprising alkylated polyvinylpyrrolidone polymer” (The Procter & Gamble Company, priority 2019, dated 2023).

CC(=O)O.CC(=O)O.NC(=N\CCCCCC/N=C(N)/N=C(\N)Nc1ccc(Cl)cc1)/N=C(\N)Nc1ccc(Cl)cc1 [Chlorhexidine diaceate, Chlorhexidine diacetate]
Solubility in water: ~1%
